The numbers were not newly measured in patent US20060281749A1, “Method for treating glaucoma IV B” (priority 2000, published 2006), which cites them from elsewhere.

Structures are written as SMILES.

Data set [1] deals with Rhesus monkeys. The settings on record: accommodative responses to i.m. pilocarpine.
Data set [2] deals with Rhesus monkeys. The settings on record: drug treated vs. control eye, baseline and pilocarpine-stimulated conditions.

As to `Cc1sc[n+](CC(=O)c2ccccc2)c1C.[Cl-]` [4,5-dimethyl-3-(2-oxoethyl-phenethyl) thiazolium chloride], the Improvement in accommodation result in data set [1] is listed as “Improvement in accommodation has been illustrated”. Also, in data set [2], the “improvement in ophthalmologic function (increase in outflow facility)” value is recorded as “improvement has been illustrated”.
